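In this assay, cells in 96-well plates receive the compound at five concentrations for 48 hours. Endpoints are linearly interpolated between the surrounding concentrations. TGI: concentration producing complete growth inhibition.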
Legend:
Assay in all cases: inhibition of tumour cell growth, NCI panel, 48 h
[1] = tested on: 786-0 renal
[2] = tested on: SF-268 CNS
[3] = tested on: UO-31 renal
[4] = tested on: TK-10 renal
[5] = tested on: IGROV1 ovarian
[6] = tested on: OVCAR-3 ovarian
[7] = tested on: OVCAR-5 ovarian
[8] = tested on: SR leukemia
[9] = tested on: SN12C renal
[10] = tested on: A549 NSCLC
[11] = tested on: T-47D breast

CO[C@@]12C[C@@H](C)C3=CCC(C)=C3CC1=C(C)C(=O)O2
TGI [1]: > 100 µM
TGI [2]: > 100 µM
TGI [3]: > 100 µM
TGI [4]: > 100 µM
TGI [5]: > 100 µM
TGI [6]: > 100 µM
TGI [7]: > 100 µM
TGI [8]: > 100 µM

CC1(C)CC(=O)C(C=NC(=S)c2ccccc2)=C(O)C1
TGI [1]: > 100 µM
TGI [2]: > 100 µM
TGI [3]: > 100 µM
TGI [4]: > 100 µM
TGI [9]: > 100 µM
TGI [5]: > 100 µM
TGI [6]: > 100 µM
TGI [7]: > 100 µM
TGI [10]: > 100 µM

CCn1c(-c2ccccc2)cs/c1=N\C(P(=O)(O)O)P(=O)(O)O
TGI [1]: > 100 µM
TGI [2]: > 100 µM
TGI [3]: > 100 µM
TGI [4]: > 100 µM
TGI [5]: > 100 µM
TGI [6]: > 100 µM
TGI [7]: > 100 µM
TGI [10]: > 100 µM
TGI [8]: > 100 µM

Cc1c2n(c(=O)[nH]c1=O)C1OC(CO)C(O2)C1O (stereo not given)
TGI [1]: > 100 µM
TGI [2]: > 100 µM
TGI [3]: > 100 µM
TGI [4]: > 100 µM
TGI [9]: > 100 µM
TGI [5]: > 100 µM
TGI [6]: > 100 µM
TGI [10]: > 100 µM
TGI [8]: > 100 µM

CCCCCCNc1n[nH]c(=O)c2c1nnn2Cc1ccccc1
TGI [1]: > 100 µM
TGI [3]: > 100 µM
TGI [4]: > 100 µM
TGI [9]: > 100 µM
TGI [6]: > 100 µM
TGI [7]: > 100 µM
TGI [10]: > 100 µM
TGI [8]: > 100 µM

C=CCCON(C(=O)OC(C)(C)C)C(C)(C)C
TGI [1]: > 100 µM
TGI [2]: > 100 µM
TGI [3]: > 100 µM
TGI [4]: > 100 µM
TGI [9]: > 100 µM
TGI [5]: > 100 µM
TGI [6]: > 100 µM
TGI [7]: > 100 µM
TGI [10]: > 100 µM
TGI [11]: > 100 µM

N#Cc1n[nH]n(-c2ccc(Br)cc2)c1=O
TGI [1]: > 100 µM
TGI [2]: > 100 µM
TGI [3]: > 100 µM
TGI [4]: > 100 µM
TGI [9]: > 100 µM
TGI [5]: > 100 µM
TGI [6]: > 100 µM
TGI [7]: > 100 µM
TGI [10]: > 100 µM
TGI [11]: > 100 µM

C[C@H]1[C@H]2[C@H]3CC[C@@H]4[C@@]5(C)CC[C@H](O)C(C)(C)[C@@H]5CC[C@@]4(C)[C@]3(C)C[C@H](O)[C@@]2(C)C[C@H]2O[C@]21C
TGI [1]: 45.1 µM
TGI [2]: 36.7 µM
TGI [4]: 41.5 µM
TGI [9]: 37.8 µM
TGI [5]: 71.1 µM
TGI [6]: 36.4 µM
TGI [7]: 58.4 µM
TGI [10]: 41.7 µM
TGI [11]: 46.8 µM

CC1(C)OC(C(=O)Nc2cc3c4ccccc4ccc3c3ccccc23)C(C(=O)N2CCCCC2)O1 (stereo not given)
TGI [1]: > 100 µM
TGI [2]: > 100 µM
TGI [3]: > 100 µM
TGI [4]: > 100 µM
TGI [9]: > 100 µM
TGI [5]: > 100 µM
TGI [6]: > 100 µM
TGI [7]: > 100 µM
TGI [10]: > 100 µM
TGI [11]: > 100 µM

CCCNC(=O)NNC(=O)c1c[nH]c2nc(C)ccc2c1=O
TGI [1]: > 100 µM
TGI [2]: > 100 µM
TGI [3]: > 100 µM
TGI [4]: > 100 µM
TGI [9]: > 100 µM
TGI [5]: > 100 µM
TGI [6]: > 100 µM
TGI [7]: > 100 µM
TGI [10]: > 100 µM
TGI [11]: > 100 µM

NC(N)=NS(=O)(=O)c1ccc(NNc2c3ccccc3nc3c(C(=O)Nc4ccc(S(=O)(=O)Nc5ncccn5)cc4)cccc23)cc1
TGI [1]: > 100 µM
TGI [2]: > 100 µM
TGI [3]: 83.7 µM
TGI [9]: > 100 µM
TGI [5]: 44.6 µM
TGI [6]: > 100 µM
TGI [7]: > 100 µM
TGI [10]: > 100 µM
TGI [11]: > 100 µM

O=c1oc2ccccc2cc1-c1cc2ccccn2c1
TGI [1]: > 100 µM
TGI [2]: > 100 µM
TGI [3]: > 100 µM
TGI [4]: > 100 µM
TGI [5]: > 100 µM
TGI [6]: > 100 µM
TGI [7]: > 100 µM
TGI [10]: > 100 µM

CCO/C(O)=C(/C(=N)N1CCOCC1)C(=O)Nc1ccc(F)cc1
TGI [1]: > 100 µM
TGI [2]: > 100 µM
TGI [4]: > 100 µM
TGI [9]: > 100 µM
TGI [5]: > 100 µM
TGI [6]: > 100 µM
TGI [7]: > 100 µM
TGI [10]: > 100 µM
TGI [11]: > 100 µM

[N-]=[N+]=NC1(Cc2ccccc2)C(=O)c2cccc3c2N(CCC3)C1=O (stereo not given)
TGI [1]: > 100 µM
TGI [2]: > 100 µM
TGI [3]: > 100 µM
TGI [4]: > 100 µM
TGI [9]: > 100 µM
TGI [5]: > 100 µM
TGI [7]: > 100 µM
TGI [10]: > 100 µM
TGI [8]: > 100 µM

CC1(C)[C@@H](Cn2ccc(=O)[nH]c2=O)CC[C@@]1(C)CO
TGI [1]: > 100 µM
TGI [2]: > 100 µM
TGI [3]: > 100 µM
TGI [4]: > 100 µM
TGI [9]: > 100 µM
TGI [6]: > 100 µM
TGI [7]: > 100 µM
TGI [10]: > 100 µM
TGI [11]: > 100 µM

COc1cc(OC)c2nc(C)c(CCCl)c(Cl)c2c1
TGI [1]: > 100 µM
TGI [2]: > 100 µM
TGI [3]: > 100 µM
TGI [4]: > 100 µM
TGI [9]: > 100 µM
TGI [5]: > 100 µM
TGI [6]: > 100 µM
TGI [7]: > 100 µM
TGI [10]: > 100 µM
TGI [8]: > 100 µM

COC(=O)c1c(O)ccc2c1c1c(n2Cc2cc(OC)cc(OC)c2)C(=O)c2ccccc2C1
TGI [1]: > 100 µM
TGI [2]: > 100 µM
TGI [3]: > 100 µM
TGI [4]: > 100 µM
TGI [9]: > 100 µM
TGI [5]: > 100 µM
TGI [6]: > 100 µM
TGI [7]: 56.1 µM
TGI [10]: > 100 µM
TGI [8]: > 100 µM

O=C1/C(=C/c2ccc(Br)s2)NC(=S)N1c1ccccc1
TGI [1]: > 100 µM
TGI [2]: > 100 µM
TGI [3]: > 100 µM
TGI [4]: > 100 µM
TGI [9]: > 100 µM
TGI [5]: > 100 µM
TGI [6]: > 100 µM
TGI [7]: > 100 µM
TGI [8]: > 100 µM

Reference: PubChem BioAssay (NCI)
